Patent US20050271588A1, “Liposome targeting of matrix metalloproteinase inhibitors” (priority 2001, published 2005)
Positions of bridges follow the written chain, without caps; N, C: chain ends. Residues, ends and D or L forms follow the SMILES beside them.

What was measured:
U937 cells = assay: Uptake of liposome-encapsulated rhodamine B by U937 cells; type: cell-based
Protocol: (§1) In another series of experiments the water-soluble fluorescent marker rhodamine B was encapsulated into liposomes and its uptake by cells was measured. Samples for rhodamine B uptake were prepared by mixing 60 μl of POPC/POPE (80/20, mol/mol, one mM) liposomes containing 10 μM rhodamine B to 300 μl of DMEM medium supplemented with 10% fetal bovine serum, Glutamax I, penicillin 100 U/ml and streptomycin 0.1 mg/ml. Peptides were then added to obtain a final concentration of […]. Ten μl (10^5 cells) of medium containing the indicated cells were combined with the LUVs. After an incubation for 15 min at 37° C. or +4° C. liposomes not bound to the cells were removed from 96-well plates by rinsing three times with cold PBS. The +4° C. temperature served as a control for non-endocytotic liposome uptake by cells (Oess and Hildt, 2000). The relative amount of rhodamine B associated with the cells was determined using microplate reader with excitation at 535 nm and emission at 595 nm.
(§2) We also preincubated cells with phorbol ester (TPA) (50 nM). Preincubation times varied from 15 to 75 min. Treatment of cells by phorbol ester (TPA) increases both expression and secretion of MMP-9 (Toth et al., 1997). Results are presented as RFI=I/I0, where RFI is relative fluorescence intensity, I0 is the emission intensity for the control, 2 μM rhodamine B in LUVs without the peptides, and I is the rhodamine emission for the peptide-liposome complexes taken up by the cells. […] M-17 inhibits the binding of MMP-9 to the substrate and this inhibition is expected to be concentration dependent. It is not known if rabbit polyclonal antibody blocks human MMP-2 (Murphy et al., 1994). Final concentrations of the indicated peptide, Adriamycin, antibodies and liposomes were 85 μM, 0.2 mM, 20 μg/ml, and 0.4 μM, respectively.
Cell cultures and fluorescence microscopy. U937 (ECACC 85011440), HT 1080 (ECACC 85111505), and CHO (ECACC 85050302) cells were cultured in RPMI or DMEM medium supplemented with 10% fetal bovine serum, Glutamax I, penicillin (100 U/ml), and streptomycin (0.1 mg/ml). Uptake of rhodamine B containing liposomes by the cultured cells was verified by fluorescence microscopy. An inverted fluorescence microscope (Zeiss IM 35) equipped with Nikon extra long working distance objectives (20×) and (40×) were used. Samples were prepared as described for the rhodamine uptake assay, with slight modifications. Accordingly, instead of washing, U937, HT 1080, and CHO cells with the rhodamine-containing liposomes and in cell culture medium were transferred into Nunclon 48 plate wells. Excitation and emission wavelengths were selected by suitable bandpass filters (Melles-Griot) transmitting in the range 535 nm and >600 nm, respectively. Fluorescence images were viewed with a Peltier-cooled digital camera (C4742-95, Hamamatsu, Japan) connected to a computer and operated by software (Hipic 5.0) provided by the instrument manufacturer.

[1] = Assay for lipid mixing (liposome fusion, NBD-PE/DPPRho); type: physicochemical; conditions: within 15 min
Protocol: (§3) The extent of exposure of Trp to the aqueous phase was studied using I— as a collisional quencher (Lakowicz, 1999). The extent of quenching was calculated by using the equation: F0/F=1+k[Q]=1+kqτ0[Q] where F0 and F are Trp fluorescence intensities at 345 nm in the absence and presence of the quencher, Q, τ0 is Trp fluorescence lifetime in the absence of the quencher, k is the Stern-Volmer constant (obtained from the slope of the linear fit of the data). Fluorescence of Trp in CTT (5 μM) and its quenching were measured in the absence and presence of POPC/POPE (80:20, mol/mol) LUVs (final lipid concentration of 0.5 mM). The results were corrected for background caused by PBS and liposomes. Assay for lipid mixing. The ability of the CTT, CLP, STT, and CWL peptides to induce liposome fusion was assessed by measuring lipid mixing, as described earlier (Struck et al., 1981). In brief, NBD-PE (X=0.01) and DPPRho (X=0.01) were incorporated into liposomes (POPC/POPE, 78/20, mol/mol). Due to the spectral overlap of NBD-PE (donor) emission and DPPRho (acceptor) absorption resonance energy transfer between these dyes is highly efficient. As liposomes containing NBD-PE and DPPRho are mixed with non-labeled liposomes, fusion is observed as an increase in the emission intensity of NBD-PE due to the dilution of probes. Excitation and emission wavelengths for NBD-PE at 430 nm and 530 nm were used. All fluorescence measurements were done at 37° C.

[2] = Trp quenching by I- (Stern-Volmer); type: physicochemical; conditions: I- quencher
Protocol: as §3, with “Excitation and emission wavelengths for NBD-PE at 430 nm and 530 nm were used.” left out

[3] = Penetration of peptides into lipid monolayers (surface pressure); type: physicochemical; conditions: eggPC monolayer, peptide 200 μM
Protocol: Interaction of peptides with lipid monolayers. Penetration of peptides into mono-molecular lipid films was measured using magnetically stirred circular wells (subphase volume 400 μl). Surface pressure (π) was monitored with a Wilhelmy wire attached to a microbalance (μ TroughS, Kibron Inc., Helsinki, Finland) connected to a Pentium PC. Lipids were spread on the air-buffer (PBS, pH 7) interface in chloroform (approx. one mg/ml) to different initial surface pressures (π0) and were allowed to equilibrate for 15 min before the addition of the indicated peptides (4 μ1,10 mg/ml in H2O and CWL in DMSO) into the subphase. The increment in π from the initial surface pressures (π0) after the addition of peptide was complete in approximately 20 min and the difference between π0 and the value observed after binding of the peptide into the film was taken as Δπ. All measurements were performed at ambient temperature (˜+24° C.). The data are represented as Δπ vs. […] (Brockman, 1999).

[4] = Trp fluorescence emission anisotropy with liposomes; type: physicochemical; conditions: 37° C.
Protocol: Fluorescence polarization of the Trp residue of CTT as a function of increasing concentration of liposomes was measured using rotating polarizers in the excitation and emission beams, with a bandpass of 10 nm. The results are expressed as emission anisotropy (Lakowicz, 1999) calculated as follows: r=(I∥−I⊥)/(I∥+2I⊥). In this equation I⊥ and I∥ represent the emission intensity perpendicular and parallel, respectively, to the excitation polarizer.

tumor = conditions: mouse models; cited from earlier work
[5] = system: HT1080 fibrosarcoma cells; assay: Uptake of liposome-encapsulated rhodamine B by HT1080 cells; type: cell-based, human; conditions: for Enhanced liposome uptake: HT1080
Protocol: as §1
as §2, with “It is not known if rabbit polyclonal antibody blocks human MMP-2 (Murphy et al., 1994). Final concentrations of the indicated peptide, Adriamycin, antibodies and liposomes were 85 μM, 0.2 mM, 20 μg/ml, and 0.4 μM, respectively.” left out
Cell cultures and fluorescence microscopy. […] Uptake of rhodamine B containing liposomes by the cultured cells was verified by fluorescence microscopy. An inverted fluorescence microscope (Zeiss IM 35) equipped with Nikon extra long working distance objectives (20×) and (40×) were used. […] Fluorescence images were viewed with a Peltier-cooled digital camera (C4742-95, Hamamatsu, Japan) connected to a computer and operated by software (Hipic 5.0) provided by the instrument manufacturer.

CC(C)C[C@@H]1NC(=O)[C@H]([C@@H](C)O)NC(=O)[C@H](Cc2ccccc2)NC(=O)CNC(=O)[C@H](Cc2c[nH]c3ccccc23)NC(=O)[C@H](Cc2c[nH]cn2)NC(=O)[C@H]([C@@H](C)O)NC(=O)[C@H]([C@@H](C)O)NC(=O)[C@@H](N)CSSC[C@@H](C(=O)O)NC1=O [CTT] (H-CTTHWGFTLC-OH; disulfide 1-10; N-terminus and C-terminus assumed)
Enhancement of uptake of liposome-encapsulated rhodamine vs liposomes lacking peptide (U937 cells; U937, fluorescence plate-reader): 3.6 fold
Rhodamine intake, fluorescence microscopy (U937 cells; U937, liposomes with vs without CTT): enhanced
Uptake of free rhodamine B (U937 cells; no liposomes): did not promote
Lipid mixing / vesicle fusion (NBD-PE emission) [1]: lack of lipid mixing
Stern-Volmer constant ([2]; absence of liposomes): 0.0087
Stern-Volmer constant ([2]; presence of liposomes): 0.0034
Initial monolayer packing pressure above which membrane penetration was abolished [3]: 38 mN/m
Trp emission anisotropy r ([4]; 230 μM phospholipid, CTT 5 μM): 0.349
Trp emission anisotropy r ([4]; absence of liposomes, CTT 5 μM in PBS): 0.065
Tumor progression in vivo (tumor): inhibited
Enhanced liposome uptake ([5]; 4° C.): not at 4 °C
Enhanced liposome uptake ([5]; 37° C.): evident only at 37 °C
Rhodamine intake, fluorescence microscopy ([5]; HT 1080, liposomes with vs without CTT): enhanced
